In patent publication US8519121B2, “Dextran for treating lung cancer” (Guangzhou Konzern Pharmaceutical Co., Ltd., priority 2008, dated 2013):

What was measured:
Format in all cases: cell-based
[1] = test system: human lung cancer cell (A549); assay: MTT cell proliferation, human lung cancer (A549); conditions: A549 cells, 48 hours, 0.1 μg/ml; for A570: n = 9, X ± SD
Experimental: (§1) Human lung cancer cell (A549), purchased from cell center of Xiangya School of Medicine, Central South University. Human small cell lung cancer (NCl-H446) and Chinese Hamster Lung Epithelial cells (CHL), purchased from Shanghai Institute of Biochemistry and Cell Biology, Chinese Academy of Sciences. Culture condition: RPMI 1640 medium with 10% bovine serum, 37° C., 5% CO2. Take the logarithmic phase cell for the following experiment.
(§2) Weight 3.8 g KY-1-1 into 10 ml bottle, dissolve with DMSO, and then dilute with normal saline (N.S.) to 300.0 μg/ml, 100.0 μg/ml, 30.0 μg/ml, 10.0 μg/ml, 3.0 μg/ml, 1.0 μg/ml, put into 2 ml EP tube separately, preserve in 4° C.
(§3) Injection Cisplatin (DDP), purchased from Qilu Pharmaceutical Co., Ltd., 10 mg/bottle, batch number 6030052 DB, dissolve with normal saline, dilute to 100.0 μg/ml, 10.0 μg/ml and 1.0 μg/ml.
(§4) Taxol (TAX), purchased from Beijing Sihuan Pharmaceutical Technology Stock Company, 30 mg/5 ml/bottle, batch number 060830, dissolve with normal saline, dilute to 100.0 μg/ml, 10.0 μg/ml and 1.0 μg/ml. • (2) Method
(§5) Preparing suspension of human lung cancer cell (A549), human small cell lung cancer (NCl-H446) and Chinese Hamster Lung Epithelial cells (CHL), adjust to 0.5×10^4 cells/ml, seed in 96-microplate, 180 μl/hole. After cell adhesion (about 12 hours), add sample and control solution 20 μl separately into each hole, adjust the final concentration of KY-1-1 to 0.1 μg/ml, 0.3 μg/ml, 1.0 μg/ml, 3.0 μg/ml, 10.0 μg/ml and 30.0 μg/ml, and the final concentration of DDP and TAX are both 0.1 μg/ml, incubate for 48 hours, and then add MTT (5 mg/ml, MTT:PBS) 20 μl to each hole, incubate for 6 hours, remove the liquid in each hole, and then add DMSO 100 μl to each hole in order to dissolve the purple blue precipitate, then detect the absorbency (A) in 570 nm by an enzyme-labeled instrument EXL-800. Calculate the inhibition ratio (IR) with the following equation: IR(%)=(1−mean of A of dextran group/mean of A of control group)×100%.
(§6) The selective index (SI) of cytotoxicity of the dextran is calculated with the following equation: SI═IC50(CHL cells)/IC50(A549 cells or NCl-H446 cells),
(§7) wherein IC50 is calculated by Calcus Zn procedure.
(§8) Repeat the above experiment twice.
(§9) Experiment data is expressed by X±SD, and use the software SPSS 15.0 Evaluation for windows to carry out One Way ANOVA analysis, and the analysis of variance uses the LSD method and SNK method. The result is compared by Student's test, there is statistic marked difference under the condition of […].

[2] = test system: Chinese Hamster Lung Epithelial cells (CHL); assay: MTT cell proliferation, Chinese Hamster Lung Epithelial cells (CHL); conditions: 48 hours, 0.1 μg/ml; for A570: n = 9, X ± SD
Experimental: as §1, §2, §3, §4, §5, §6, §7, §8, §9

[3] = test system: human small cell lung cancer (NCl-H446); assay: Anchorage-independent cell growth (cell colony forming capacity in agar), NCl-H446; conditions: NCI-H446, colony forming in agar, 7 days, 0.1 μg/ml; for Number of Colonies: n = 9, X ± SD
Experimental: as §1
(§10) Take 24-microplate, add 0.6% agar medium 0.5 ml in each hole. Preparing suspension of human lung cancer cell (A549) and human small cell lung cancer (NCl-H446), adjust to 1.6×10^3 cells/ml. In each hole, cell suspension 1.6 ml, and sample 0.2 ml, and control solution 0.2 ml. The final concentration of KY-1-1 is 0.1 μg/ml, 0.3 μg/ml, 1.0 μg/ml, 3.0 μg/ml, 10.0 μg/ml and 30.0 μg/ml, and the final concentration of DDP and TAX are both 0.1 μg/ml. DDP 0.2 ml, and TAX 0.2 ml. Add the same volume medium into the control group. Three holes in each group, after mixing with 0.3% agar 0.2 ml, seed in 24-microplate 0.5 ml/hole, incubate in CO2 for 7 days. The number of cells in a colony is more than 50, or the diameter of the colony is more than 75 μm. Count the number of colonies in each hole, calculate the mean and record it. Calculate the colony inhibition ratio (CIR) with the following equation: CIR(%)=(1−mean of number of colony of dextran group/mean of number of colony of control group)×100%.
(§11) The plate efficiency (PE) is calculated with the following equation: PE=mean of number of colony/number of seeded cells×100%,
as §7, §8, §9

[4] = test system: human lung cancer cell (A549); assay: Anchorage-dependent cell growth capacity, plate cloning method, A549; conditions: 7 days, 0.1 μg/ml; for Number of Colonies: n = 9, X ± SD
Experimental: as §1
(§12) Preparing suspension of human lung cancer cell (A549) and human small cell lung cancer (NCl-H446), adjust to 0.3×10^3 cells/ml. In each hole, cell suspension […], and sample 0.2 ml, and control solution 0.2 ml. The final concentration of KY-1-1 is 0.1 μg/ml, 0.3 μg/ml, 1.0 μg/ml, 3.0 μg/ml, 10.0 μg/ml and 30.0 μg/ml, and the final concentration of DDP and TAX are both 0.1 μg/ml, add the same volume medium into the control group. Three holes in each group, seed in 24-microplate, incubate in CO2 for 7 days. Add 95% methanol 0.5 ml into each hole, fixed for 15 minutes, and Giemsa staining for 10-30 minutes. The number of cells in a colony is more than 50, or the diameter of the colony is more than 75 μm. Count the number of colonies in each hole, calculate the mean and record it. Calculate the colony inhibition ratio (CIR) with the following equation: CIR(%)=(1−mean of number of colony of dextran group/mean of number of colony of control group)×100%.
as §11, §7, §8, §9

[5] = test system: human small cell lung cancer (NCl-H446); assay: Anchorage-dependent cell growth capacity, plate cloning method, NCl-H446; conditions: NCI-H446, plate cloning method, 7 days, 0.1 μg/ml; for Number of Colonies: n = 9, X ± SD
Experimental: as §1, §12, §11, §7, §8, §9

[6] = test system: human lung cancer cell (A549); assay: Anchorage-independent cell growth (cell colony forming capacity in agar), A549; conditions: 7 days, 0.1 μg/ml; for Number of Colonies: n = 9, X ± SD
Experimental: as §1, §10, §11, §7, §8, §9

[7] = test system: human small cell lung cancer (NCl-H446); assay: MTT cell proliferation, human small cell lung cancer (NCl-H446); conditions: NCI-H446 cells, 48 hours, 0.1 μg/ml; for A570: n = 9, X ± SD
Experimental: as §1, §2, §3, §4, §5, §6, §7, §8, §9

SMILES | IR (%) [1] | A570 [1] | IR (%) [2] | A570 [2] | IR (%) [3] | Number of Colonies [3] | IR (%) [4] | Number of Colonies [4] | IR (%) [5] | Number of Colonies [5] | IR (%) [6] | Number of Colonies [6] | IR (%) [7] | A570 [7]
CC(=O)O[C@H]1C(=O)[C@@]2(C)[C@H]([C@H](OC(=O)c3ccccc3)[C@]3(O)C[C@H](OC(=O)[C@H](O)[C@@H](NC(=O)c4ccccc4)c4ccccc4)C(C)=C1C3(C)C)[C@]1(OC(C)=O)CO[C@@H]1C[C@@H]2O [TAX, Taxol] | 83.13% | 0.27 ± 0.03 | 83.13% | 1.25 ± 0.14 | 84.46% | 11.00 ± 1.58 | 82.00% | 17.78 ± 2.05 | 82.34% | 19.11 ± 2.57 | 83.61% | 10.00 ± 1.87 | 83.54% | 0.27 ± 0.01
N.N.[Cl][Pt][Cl] [DDP, Cisplatin] | 76.35% | 0.37 ± 0.03 | 76.35% | 1.41 ± 0.30 | 75.98% | 17.00 ± 2.74 | 75.82% | 23.89 ± 4.43 | 78.44% | 23.33 ± 4.18 | 77.05% | 14.00 ± 2.00 | 77.89% | 0.36 ± 0.03
